For this assay, the system named is SARS-CoV. Description: Antiviral activity against SARS coronavirus Urbani infected in monkey Vero E6 cells assessed as reduction in virus-induced cytopathogenicity incubated for 48 hrs by CellTiter-Glo luminescent cell viability assay. It is filed as functional, organism-based. The following applies: Severe acute respiratory syndrome-related coronavirus, Vero C1008, 48 h. For orientation: Protection from cytopathic effect is a common read-out in antiviral testing.

Usually pEC50 stands for the EC50 on a negative log10 scale, so that one unit is a factor of ten.

pEC50: −log10 of the molar value.

With `Cc1ccc(N)cc1C(=O)N[C@H](C)c1cccc2ccccc12`, the pEC50 was 5.00.

Source of the values: ChEMBL document CHEMBL4619784, “Exploiting Existing Molecular Scaffolds for Long-Term COVID Treatment” (ACS Med Chem Lett, 2020).
